Experimental data as given in patent publication US8933096B2, “Antimicrobial agents” (Rugers, The State University of New Jersey, priority 2010, dated 2015).

How the values were obtained:
[1] = test system: methicillin-Sensitive Staphylococcus aureus (MSSA); experiment: Test C: planktonic antibacterial broth microdilution assay (MIC) vs MSSA; assay type: cell-based; conditions: 37° C., growth read after 24 to 48 hours at OD 600 nm
Experimental: (§1) Test C. Planktonic (Free-Living) Antibacterial Assay.
(§2) Planktonic antibacterial activity can be determined using a broth microdilution assay in which log-phase bacteria are grown at 37° C. in appropriate medium containing two-fold serial dilutions of a compound to yield a final concentration ranging from 256 to 0.1 μg/ml. For determination of minimal inhibitory concentration (MIC) values, bacterial growth is monitored after 24 to 48 hours by measuring optical density at 600 nm.

[2] = test system: MRSA; experiment: Test C: planktonic antibacterial broth microdilution assay (MIC) vs MRSA; assay type: cell-based; conditions: Staphylococcus aureus, 37° C., growth read after 24 to 48 hours at OD 600 nm
Experimental: as §1, §2

[3] = biological target: T1, S. aureus FtsZ GTPase (Staphylococcus aureus, UniProt P0A031); experiment: Test B: FtsZ GTPase inhibition, colorimetric malachite green assay; assay type: biochemical; conditions: 1 mM GTP, 20 mM CaCl2, 2 μM FtsZ, 60 minutes at room temperature, read-out: IC50 (compound concentration at which FtsZ GTPase activity is inhibited by 50%)
T1 sequence (P0A031 1-390): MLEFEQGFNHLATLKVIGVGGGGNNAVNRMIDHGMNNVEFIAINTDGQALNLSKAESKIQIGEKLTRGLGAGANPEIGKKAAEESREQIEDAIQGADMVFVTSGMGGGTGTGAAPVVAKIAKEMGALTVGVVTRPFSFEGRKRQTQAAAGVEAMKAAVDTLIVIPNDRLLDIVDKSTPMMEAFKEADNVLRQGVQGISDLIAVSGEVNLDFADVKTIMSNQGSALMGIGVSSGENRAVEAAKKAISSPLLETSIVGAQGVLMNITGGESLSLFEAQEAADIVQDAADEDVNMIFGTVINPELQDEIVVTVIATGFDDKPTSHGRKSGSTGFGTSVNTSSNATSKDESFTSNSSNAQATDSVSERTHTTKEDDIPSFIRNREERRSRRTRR
Source text: Test B. Determining the FtsZ GTPase Inhibitory Activities of Compounds of the Invention.
Compound-induced inhibition of the FtsZ GTPase activity can be tested using a colorimetric assay in which the inorganic phosphate (Pi) released upon FtsZ-catalyzed hydrolysis of GTP reacts with malachite green and molybdate under acidic conditions to form a ternary complex that absorbs light at 650 nm, thus enabling quantitation of Pi levels by recording the absorbance at 650 nm (A650). All reactions are conducted in triplicate in 96-well microtiter plates. Differing concentrations (ranging from 0 to 1.5 mM) of compound are combined with 1 mM GTP and 20 mM CaCl2, the latter being used because FtsZ GTPase activity requires the presence of Ca2+ ions. The reactions will be initiated by addition of 2 μM FtsZ and allowed to incubate for 60 minutes at room temperature. Following incubation, the reactions will be stopped by adding 80 μl of an acidic malachite green-molybdate solution containing 0.3 mg/ml malachite green oxalate, 2 mg/ml sodium molybdate, 0.5 mg/ml Triton X-100, and 0.7 N HCl. […] Ten minutes following addition of the acidic malachite green-molybdate solution, the A650 value for each reaction are recorded using a microtiter plate reader. […] This standard curve is then fit by linear regression analysis to yield the quantitative relationship between A650 and Pi concentration. […]

Structure (SMILES) | MIC [1] [µg/mL] | MIC [2] [µg/mL] | IC50 [3] [µM]
COc1cc2cc(-c3cc(-c4ccccc4)cc(-c4ccccc4)c3)nc(N=C(N)N)c2cc1OC [Example 3] | ≤ 32 | – | –
COc1cc2cc(-c3cccc(-c4ccccc4)c3)[n+](C)c(N(C)C)c2cc1OC.[I-] [Example 5] | ≤ 8 | – | –
COc1cc2cc(-c3cccc(-c4ccccc4)c3)nc(N=C(N)N)c2cc1OC [Example 7] | ≤ 8 | – | –
COc1cc2cc(-c3cccc(-c4ccccc4)c3)nc(NCCN)c2cc1OC [Example 9] | ≤ 8 | – | –
COc1cc2cc(-c3cccc(C(C)(C)C)c3)nc(CN=C(N)N)c2cc1OC [Example 13] | ≤ 8 | ≤ 8 | –

Next, values leading:

MIC [1] [µg/mL] | MIC [2] [µg/mL] | IC50 [3] [µM] | Structure (SMILES)
≤ 8 | ≤ 8 | – | COc1cc(-c2cc3cc(OC)c(OC)c(OC)c3c(C)[n+]2C)cc(-c2cccc(-c3ccc(F)cc3)c2)c1OC.[I-] [Example 15]
≤ 8 | ≤ 8 | < 100 | COc1cc(-c2cc3cc(OC)c(OC)c(OC)c3c(C)[n+]2C)cc(-c2cc(-c3ccc(F)cc3)cc(-c3ccc(F)cc3)c2)c1OC.[I-] [Example 19]
≤ 8 | – | < 100 | COc1cc(-c2cc3ccccc3c[n+]2C)cc(-c2cccc(-c3ccc(F)cc3)c2)c1OC.[I-] [Example 22]
≤ 8 | – | – | COc1cc2cc(-c3cccc(C(C)(C)C)c3)nc(C/N=C(/C)N)c2cc1OC [Example 23]
